Active and inactive are the calls of the source.
Legend:
[1] = HeLa 4N DNA content increase, dose response, cell-based, IC50 (AID 1117351); format: functional
[2] = inhibitors of HIV Env-driven cell fusion, dose response, cherry-pick (AID 652057); format: functional, cell-based
[3] = off-target signal loss in HeLa-CEM21 co-culture – HeLa F-luc CTL cells, cherry-picked, counter-screen for HIV-1 Env fusion inhibitor project, dose response (AID 652040); format: functional, cell-based;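 further: potency for signal decrease marking cytotoxic or nonspecific inhibition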
[4] = ZM109 Env clade C HIV-1 fusion inhibitors, dose response, HeLa effector, CEM target cells, luciferase, cherry-pick (AID 652058); format: functional, cell-based
[5] = inhibitors of clade B AD8 Env fusion, dose response, cell-based, cherry-pick (AID 652062); format: functional;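 further: luciferase signal from cell-cell fusion driven by HIV-1 clade B AD8 Env; potency is for inhibitors of fusion seen as a drop in luminescence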
[6] = target: T1, Nuclear receptor subfamily 0 group B member 1 (Homo sapiens, UniProt P51843); format: functional, cell-based;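 further: HEK293T cells transfected with SF-1 and DAX-1 plus StAR promoter luciferase reporter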
T1 sequence (P51843 whole entry): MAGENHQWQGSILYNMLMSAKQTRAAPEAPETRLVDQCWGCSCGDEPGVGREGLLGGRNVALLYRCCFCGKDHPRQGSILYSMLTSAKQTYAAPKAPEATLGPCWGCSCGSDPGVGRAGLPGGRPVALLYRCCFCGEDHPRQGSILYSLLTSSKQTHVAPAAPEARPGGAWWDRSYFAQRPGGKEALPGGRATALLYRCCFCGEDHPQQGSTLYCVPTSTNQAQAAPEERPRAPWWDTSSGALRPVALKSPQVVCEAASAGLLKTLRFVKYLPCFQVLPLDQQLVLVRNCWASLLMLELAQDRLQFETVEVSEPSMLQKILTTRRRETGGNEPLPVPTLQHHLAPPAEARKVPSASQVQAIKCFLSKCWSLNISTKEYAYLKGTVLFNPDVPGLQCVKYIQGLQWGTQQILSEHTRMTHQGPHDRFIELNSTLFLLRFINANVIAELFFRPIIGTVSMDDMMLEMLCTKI

cells [7] = format: functional, cell-based
Beta-galactosidase = Beta-galactosidase (Escherichia coli, UniProt Q8VNN2); experiment: Dose response counterscreen for EBI2 assay utilizing the enzyme, b-galactosidase.; format: functional
Streptococcus = experiment: Group A Streptococcus viability loss, dose response, counter-screen for streptokinase expression inhibitor project, luminescence, BacTiterGlo (AID 1915); format: functional, organism-based;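 further: potency for reduction of bacterial viability or growth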
[8] = tested on: Streptococcus sp. 'group A'; experiment: growth inhibition of control SK(-) GAS strain, dose response, counter-screen for streptokinase expression inhibitor project, luminescence, kanamycin, BacTiterGlo, confirmation (AID 1900); format: functional, organism-based
[9] = target: T2, Heat shock factor protein 1 (Mus musculus, UniProt P38532); experiment: inhibition of MG132-induced HSE-luciferase signal, confirmation, cell-based, NIH3T3, luminescence, dose retest (AID 2382); format: functional;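 further: NIH3T3 fibroblasts with HSF1-driven luciferase reporter stressed by proteasome inhibitor MG132; luminescence from HSF1-driven luciferase expression after 8 hours of MG132 stress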
T2 sequence (P38532 whole entry): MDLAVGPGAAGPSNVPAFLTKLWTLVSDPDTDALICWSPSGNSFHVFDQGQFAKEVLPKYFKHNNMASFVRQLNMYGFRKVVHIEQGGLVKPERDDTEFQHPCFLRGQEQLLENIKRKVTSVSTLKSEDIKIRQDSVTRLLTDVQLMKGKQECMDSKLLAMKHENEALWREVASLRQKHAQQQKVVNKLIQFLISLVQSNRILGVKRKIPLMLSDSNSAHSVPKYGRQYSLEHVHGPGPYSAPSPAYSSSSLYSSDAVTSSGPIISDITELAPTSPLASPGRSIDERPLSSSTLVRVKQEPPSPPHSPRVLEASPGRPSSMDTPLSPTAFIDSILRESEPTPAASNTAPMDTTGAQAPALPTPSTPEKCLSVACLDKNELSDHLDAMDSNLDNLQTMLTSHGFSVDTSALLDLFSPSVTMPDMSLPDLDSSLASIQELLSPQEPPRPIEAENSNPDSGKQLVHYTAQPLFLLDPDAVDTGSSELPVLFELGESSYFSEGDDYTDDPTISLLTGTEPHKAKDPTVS

[10] = human group III sPLA2 inhibitors, dose response, biochemical, QFRET, IC50 (AID 743457);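 further: green fluorescence rise as the enzyme cleaves BODIPY PC-A2 in liposomes; potency for inhibition of the enzyme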
[11] = target: T3, Trace amine-associated receptor 1 (Homo sapiens, UniProt Q96RJ0); experiment: Counterscreen for agonists of the human trace amine associated receptor 1 (hTAAR1): Fluorescence-based cell-based high throughput dose response assay to identify hTAAR1 agonist that also desensitize TAAR1 receptor response.; format: functional
T3 sequence (Q96RJ0 whole entry): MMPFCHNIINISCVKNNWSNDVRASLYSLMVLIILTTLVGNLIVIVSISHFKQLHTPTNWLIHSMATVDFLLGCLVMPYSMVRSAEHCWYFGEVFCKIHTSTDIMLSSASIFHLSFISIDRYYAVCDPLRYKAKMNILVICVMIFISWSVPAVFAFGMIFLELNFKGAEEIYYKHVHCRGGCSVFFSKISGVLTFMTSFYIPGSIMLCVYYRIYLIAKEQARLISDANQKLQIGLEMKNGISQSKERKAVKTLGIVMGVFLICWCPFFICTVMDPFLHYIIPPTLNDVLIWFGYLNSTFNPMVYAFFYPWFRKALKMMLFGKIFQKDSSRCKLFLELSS

cells [12] = format: functional, cell-based; remark: listed apart in the source
[13] = target: T3, Trace amine-associated receptor 1; experiment: Fluorescence-based cell-based high throughput dose response assay to identify agonists of the human trace amine associated receptor 1 (TAAR1).; format: functional
cells [14] = format: functional, cell-based; remark: listed apart in the source
[15] = cytotoxicity in HEK-293T cells, dose response, cytotoxicity control for TCR NF-kB inhibitor project, luminescence, T-cell screen hits (AID 489026); format: functional, cell-based;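 further: cells exposed to compound about 14 hours before the viability readout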
[16] = target: T4, COUP transcription factor 2 (Homo sapiens, UniProt P24468); experiment: Luminescence-based cell-based high throughput dose response assay to identify inhibitors of COUP-TFII (NR2F2).; format: functional;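 further: HEK293 cells transiently cotransfected with COUP-TFII expression vector and reporter; luciferase reporter luminescence driven by COUP-TFII from the pX2-168 reporter plasmid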
T4 sequence (P24468 whole entry): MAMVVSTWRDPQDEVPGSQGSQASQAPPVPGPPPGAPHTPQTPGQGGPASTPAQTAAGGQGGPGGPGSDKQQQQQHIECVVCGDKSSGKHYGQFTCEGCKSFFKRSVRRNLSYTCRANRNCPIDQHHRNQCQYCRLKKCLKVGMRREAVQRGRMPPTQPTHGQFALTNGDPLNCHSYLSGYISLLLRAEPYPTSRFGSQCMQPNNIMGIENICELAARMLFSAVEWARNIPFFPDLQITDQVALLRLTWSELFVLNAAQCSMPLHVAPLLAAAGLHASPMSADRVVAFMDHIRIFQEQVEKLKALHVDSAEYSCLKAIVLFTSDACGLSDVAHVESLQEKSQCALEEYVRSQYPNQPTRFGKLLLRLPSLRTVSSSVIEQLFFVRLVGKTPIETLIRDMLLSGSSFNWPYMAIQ

[17] = target: Protein-tyrosine kinase 2-beta (Homo sapiens, UniProt Q14289);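 further: potency of inhibitors of PYK2 kinase phosphorylation of poly-GT substrate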
Estrogen receptor beta = Estrogen receptor beta (Homo sapiens, UniProt Q92731);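 further: recombinant ER-beta bound to coactivator SRC1 peptide in presence of estradiol agonist; inhibitors block coactivator peptide binding and lower the FRET signal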
Major prion protein = Major prion protein (Homo sapiens, UniProt P04156); format: functional, cell-based
cells [18] = experiment: cells
[19] = inhibitors of SNCA 5'UTR-driven reporter translation, confirmation, H4 neuroglioma cells, luminescence (AID 1988); format: functional, cell-based
[20] = inhibitors of firefly luciferase expression or activity, dose response, H4 neuroglioma cells, luminescence (AID 1990); format: functional, cell-based
[21] = Luminescence Cell-Based Dose Response HTS to Identify Inhibitors of 5'UTR Stem-Loop Driven Prion Protein mRNA Translation in H4 Neuroglioblastoma Cells. [Related pubchem assays: 1827 (Project Summary), 1813 (Primary HTS)]; format: functional

CC[C@@]1(O)C(=O)OCc2c1cc1n(c2=O)Cc2c-1nc1ccccc1c2/C=N/OC(C)(C)C
IC50 [1]: > 10 µM (inactive)

CC[C@@]12C(=O)N(c3cccc(Br)c3)C(=O)N1[C@H](c1ccc(OC)cc1)[C@@H]1C(=O)N(C(C)(C)C)C(=O)[C@@H]12
AC50 [2]: 0.326 µM (active)
AC50 [3]: 0.509 µM (active)
AC50 [4]: 0.581 µM (active)
AC50 [5]: 0.627 µM (active)

COc1ccc([C@@H]2[C@@H]3C(=O)N(C(C)(C)C)C(=O)[C@@H]3[C@]3(CC(C)C)C(=O)N(c4ccccc4)C(=O)N23)cc1
AC50 [2]: 0.737 µM (active)
AC50 [3]: 0.732 µM (active)
AC50 [4]: 1.13 µM (active)
AC50 [5]: 1.88 µM (active)

Cc1cc(C)n2nc(C(=O)Nc3ccc4c(c3)OCCO4)nc2n1
IC50 [6]: > 67.5 µM (inactive)
IC50 (cells [7]): > 67.5 µM (inactive)

Cc1ccsc1C1Nc2ccc3ncccc3c2C2=C1C(=O)CC(C)(C)C2 (stereo not drawn)
IC50 (Beta-galactosidase): > 80 µM (inactive)

COc1ccc(C(=O)NC(=S)NNC(=O)c2ccco2)cc1
EC50 (Streptococcus): 17.3 µM (active)
EC50 [8]: 6.65 µM (active)
EC50 [9]: > 195 µM (not active)
IC50 [10]: > 122 µM (inactive)

O=C(CCN1CCCC1Cc1ccccc1)c1ccc2c(c1)OCCO2 (stereo not drawn)
IC50 [11]: > 9.97 µM (active)
IC50 (cells [12]): > 29.9 µM (inactive)
EC50 [13]: 0.3 µM (active)
EC50 (cells [14]): > 29.9 µM (inactive)

Cc1cc(-n2c(C)cc(C(=O)CSc3ncnc4ccccc34)c2C)no1
IC50 [15]: > 80 µM (inactive)
IC50 [16]: 6.08 µM (active)

COc1ccc(-c2cc3ccccc3oc2=O)cc1NC(=O)c1ccc(Br)o1
IC50 [17]: 1.57 µM (active)

CCOC(=O)c1cccc(NC(=O)c2cccs2)c1
IC50 (Estrogen receptor beta): > 50 µM (not active)

COc1cc(C(=O)Nc2scc(-c3ccc(C)cc3)c2C(=O)O)cc(OC)c1OC
IC50 (Major prion protein): 4.4 µM (active)
IC50 (cells [18]): > 138 µM (inactive)

CN(C)CCN(C(=O)c1ccc2c(c1)CCCC2)c1nc2cc3c(cc2s1)OCCO3
IC50 [6]: > 67.5 µM (inactive)
IC50 (cells [7]): > 67.5 µM (inactive)

O=C1CC2(CCN(C(=O)COc3ccc(Cl)cc3)CC2)Oc2ccccc21
IC50 (Beta-galactosidase): > 80 µM (inactive)

Cc1nn(C)c(C)c1CN(C)C(=O)c1cnn2c1NC(c1ccccc1)CC2C(F)(F)F (stereo not drawn)
EC50 [19]: 20 µM (active)
EC50 [20]: > 120 µM (not active)
EC50 [21]: 17.9 µM (active)
IC50 (Estrogen receptor beta): > 50 µM (not active)

— ChEMBL document CHEMBL1201862, “PubChem BioAssay data set” (2004)
